Assay results: BigSolDB 2.1

CN1CCC(N(Cc2cccs2)c2ccccc2)CC1
solubility (mole fraction)
Settings	278.15 K	283.15 K	288.15 K	293.15 K	298.15 K	303.15 K	308.15 K	313.15 K	318.15 K	323.15 K
in DMF	0.00706	0.00795	0.00881	0.00971	0.0108	0.0119	0.0132	0.0143	0.0158	0.0175
in water	2.63e-05	2.84e-05	3.06e-05	3.36e-05	3.72e-05	4.16e-05	4.62e-05	5.09e-05	5.66e-05	6.3e-05
